One data set deals with T1, 5-LO in bovine PMNL (Bos taurus, UniProt F1MQ78).
T1 construct: endogenous in cells; host or cells: polymorphonuclear leukocytes isolated from bovine blood
T1 sequence (F1MQ78 1-674): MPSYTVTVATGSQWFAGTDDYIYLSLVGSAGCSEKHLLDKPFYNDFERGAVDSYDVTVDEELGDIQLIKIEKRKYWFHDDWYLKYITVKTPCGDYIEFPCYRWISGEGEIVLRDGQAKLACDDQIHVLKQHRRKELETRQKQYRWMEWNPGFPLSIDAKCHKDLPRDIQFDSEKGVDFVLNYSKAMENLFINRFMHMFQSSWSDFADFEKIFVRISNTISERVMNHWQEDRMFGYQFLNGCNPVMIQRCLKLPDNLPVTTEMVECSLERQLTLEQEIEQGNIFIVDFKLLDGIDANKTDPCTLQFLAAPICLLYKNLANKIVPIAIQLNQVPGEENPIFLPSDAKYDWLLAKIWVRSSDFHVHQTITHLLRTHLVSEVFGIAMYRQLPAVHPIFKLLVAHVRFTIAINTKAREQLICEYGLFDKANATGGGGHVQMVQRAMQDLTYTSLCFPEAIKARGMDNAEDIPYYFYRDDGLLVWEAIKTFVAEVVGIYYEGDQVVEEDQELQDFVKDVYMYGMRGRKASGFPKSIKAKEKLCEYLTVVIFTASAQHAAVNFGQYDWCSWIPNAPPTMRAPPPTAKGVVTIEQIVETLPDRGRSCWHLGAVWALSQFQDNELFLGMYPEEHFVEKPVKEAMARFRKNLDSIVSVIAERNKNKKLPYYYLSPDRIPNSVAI
As to the kind of experiment: Bovine PMNL 5-lipoxygenase assay (inhibition of 5-HETE and LTB4 biosynthesis). The class given is cell-based.

Data set [1] is described as follows: Degradation of 2-deoxy-D-ribose (hydroxyl radical formation). The procedure:
This assay followed generally the procedures of Gutteridge, J. M. C., "Reactivity of Hydroxyl and Hydroxyl-Like Radicals Discriminated by Release of Thiobarbituric Acid-Reactive Material from Deoxy Sugars, Nucleosides and Benzoate", Biochem. J., 224, 761-767 (1984) and of Laughton, M. J. et al., "Antioxidant and Prooxidant Actions of the Plant Phenolics Quercetin, Gossypol and Myricetin", Biochem. Pharmacol., 38, 2859-2865 (1989). The following reagents were added to glass tubes in the order and at the final concentrations stated. 0.3 ml KH2 PO4 -KOH buffer, pH 7.4 (30 mM), 0.2 ml H2 O bidist., 0.2 ml 2-deoxy-D-ribose (2 mM), 0.2 ml FeCl3 .cndot.6 H2 O (0.1 mM), 0.1 ml anthracenone derivative (75 μM). Stock solutions of the compounds were made up fresh before use. Appropriate blanks and controls with the vehicle (acetonitrile) were conducted. The final reaction volumes were standardized to 1.0 ml. The reaction mixtures were incubated for 2 h at 37° C. in a shaking water bath. 1.0 ml of 2.8% (w/v) trichloroacetic acid and 1.0 ml of 1% (w/v in 0.05 N NaOH) 2-thiobarbituric acid (TBA) were added, and the samples were heated at 100° C. for 15 min and then cooled in an ice bath (5 min). Then 2.0 ml of the reaction mixtures were treated with 0.05 ml of 36% (w/v) HCl and 2.0 ml of 1-butanol and the mixtures were vigorously shaken in a vortex mixer (Heidolph) for 15 s. The organic layer was separated by centrifugation at 3000 rpm (15 min) and the absorbance at 532 nm was measured against butanol. […]
The biological assay methods were as follows: LDH release as described in Muller K, Huang H-S, Wiegrebe W, J. Med. Chem. 39, 3132-3138 (1996); bovine PMNL 5-LO assay as described in Muller K, Gurster D, Piwek S, Wiegrebe W, J. Med. Chem. 36, 4099-4107 (1993); and degradation of 2-deoxy-D-ribose as described in Muller K, Gurster D, Biochem. Pharmacol. 46, 1695-1704 (1993). […] Extracellular LDH activity was measured using the UV method with pyruvate and NADH and is expressly in mU/ml. […]

Data set [2] deals with HaCaT cells. As to the kind of experiment: HaCaT keratinocyte proliferation assay. Format: cell-based. The following applies: Homo sapiens. From the text:
(§1) The biological assay methods were as follows: LDH release as described in Muller K, Huang H-S, Wiegrebe W, J. Med. Chem. 39, 3132-3138 (1996); bovine PMNL 5-LO assay as described in Muller K, Gurster D, Piwek S, Wiegrebe W, J. Med. Chem. 36, 4099-4107 (1993); and degradation of 2-deoxy-D-ribose as described in Muller K, Gurster D, Biochem. Pharmacol. 46, 1695-1704 (1993). HaCaT keratinocyte proliferation assay was generally described in Muller K, Leukel P, Zeireis K, Gawlik I, J. Med. Chem 37, 1660-1669 (1994). Specifically, the HaCaT cells were incubated with the test compounds (2 microM) for four hours at 37° C. Extracellular LDH activity was measured using the UV method with pyruvate and NADH and is expressly in mU/ml. Appropriate controls with the vehicle were performed (P<0.01; N=3, SD<10%).

For data set [3], the system named is HaCaT cells. As to the kind of experiment: LDH release in HaCaT cells. The class given is cell-based.
Excerpt: as §1
Geisel J.; Mahrle, G. "Lactate dehydrogenase release as an indicator of dithranol-induced membrane injury in cultured human keratinocytes", Arch. Dermatol. Res., 282, 325-329 (1990)). Cytotoxicity against cell cultures by the potent cell growth inhibitors was assessed by the activity of lactate dehydrogenase (LDH) activity release into the culture medium. The release of LDH is commonly used as an indicator of plasma membrane damage.
For orientation: LDH leaks from cells whose membrane has failed.

The conditions of data set [4]: octanol-water; cited from earlier work.
The test system of another data set is psoriasis. The following applies: in vivo; cited from earlier work.

The values below come from US5952390A, “10-substituted 1,8-dihydroxy-9(10H) anthracenone pharmaceuticals” (Teva Pharmaceutical Industries Ltd., priority 1998, dated 1999).

Read-outs that look alike come from different tables or passages of the source.

One may read the inhibition as the change of the read-out against control, counted positive when it falls. Low readings indicate little suppression, high ones strong suppression. As usually defined, the IC50 is the concentration at which inhibition is half-maximal.

As to `CC(=O)Oc1cccc2cc3cccc(OC(C)=O)c3c(OC(C)=O)c12` [triacetoxyanthracene], the “inhibition at 30 µM” value at 5-LO in bovine PMNL (at 30 μM, bovine PMNL) is 15%.
With `CC(CCC(=O)C1c2cccc(O)c2C(=O)c2c(O)cccc21)c1ccccc1` (racemic) [Compound Iw, (R,S)-1,8-dihydroxy-10-(1-oxo-4-phenylpentyl)-9(10H)-anthracenone], the IC50 was found to be 0.3 µM against 5-LO in bovine PMNL (Table V, bovine PMNL) and 0.8 µM with HaCaT cells [2] (Table V, footnotes same as in Example 8, read-out: AA IC50 (antiproliferative activity)). Also, the “DD(OH), deoxyribose degradation” value in data set [1] (Table V, footnotes same as in Example 8) is given as < 0.3 μmol of malondialdehyde/mmol o. Moreover, the LDH release in the data set on HaCaT cells [3] (Table V, 2 μM test compound (Example 8)) was found to be 171 mU.
`O=C1c2c(O)cccc2C(C(=O)CCCc2ccccc2)c2cccc(O)c21` [Ip, 1,8-Dihydroxy-10-(1-oxo-4-phenylbutyl)-9(10H)-anthracenone]: at 5-LO in bovine PMNL (compared with anthralin), the “effectiveness as inhibitor of lipoxygenase relative to anthralin” value was ~100 times.
For `c1ccc2ccccc2c1` [naphthalene], in data set [4], the “log P (known values of calibration compounds)” value is listed as 3.44.
On 5-LO in bovine PMNL, `CC(Cc1ccc(O)c(O)c1)C(C)Cc1ccc(O)c(O)c1` (centres unmarked) [Nordihydroguaiaretic acid (NDGA), Nordihydroguaiaretic acid] registered an IC50 of 0.4 µM.
In the case of `Cc1ccc(CC(=O)C2c3cccc(O)c3C(=O)c3c(O)cccc32)cc1` [Compound Iv, 1,8-dihydroxy-10-[2-(4-methylphenyl)-1-oxoethyl]-9(10H)-anthracenone], the IC50 against 5-LO in bovine PMNL was 0.6 µM; in the data set with HaCaT cells [2] (Table IV, N = 3, P < 0.01, read-out: AA IC50 (antiproliferative activity)), 0.7 µM. Also, the “DD(OH), deoxyribose degradation” value in data set [1] (Table IV, released by 75 μm test compound (so in the source)) is reported as < 0.3 μmol of malondialdehyde/mmol o. Besides, the “LDH release versus vehicle control, in words” value with HaCaT cells [3] (2 microM, 37° C., four hours) is on record as “not significantly different as compared to vehicle controls”. For the same molecule, in the data set with HaCaT cells [3] (Table IV, 2 μM test compound, N = 3, SD < 10%), the LDH release was found to be 145 mU.
In the case of `O=C1c2ccccc2Cc2cccc(O)c21` [1-hydroxy-9(10H)-anthracenone], the “antipsoriatic efficacy, in words” value in the data set with psoriasis is “effective in the treatment of psoriasis”.
